Patent US5565489A, “Epoxycyclohexenedione derivatives” (Kyowa Hakko Kogyo Co., Ltd., priority 1993, dated 1996)
Values after ≈ are worked out from the molar mass of the structure shown.

Columns and labels:
FTase [1] = molecular target: T1, FTase (Rattus norvegicus, UniProt Q02293+Q04631); experiment: FTase inhibitory activity (farnesylation of v-Ki-ras p21, partially purified rat brain FTase); format: biochemical; conditions: for IC50: rat brain FTase, v-Ki-ras p21 substrate
T1 construct: The FTase used for the assay was obtained from rat brain as follows; from tissue; host or cells: male rat brain; ammonium sulfate fraction, Mono Q 10/10, partially purified
Description: (§1) FTase Inhibitory Activity
The FTase used for the assay was obtained from rat brain as follows. An extract of minced brain of a male rat was salted out using ammonium sulfate. The fraction obtained at 50% saturation was dissolved in a buffer solution (20 mM Tris-HCl, pH 7.5, 1 mM dithiothreitol (DTT), 20 μM ZnCl2) and further fractionated by column chromatography using a Mono Q 10/10 column. The column was eluted by gradient elution with 0.3 to 0.4 M NaCl. The active fraction eluted at near 0.35 M NaCl, was used as a partially purified preparation. Measurement of the activity was carried out by using the thus prepared enzyme and v-Ki-ras p21 as a substrate. The v-Ki-ras p21, used as a substrate, was obtained by high expression using Escherichia coli, followed by purification according to the method of Tamaoki, et al. [Biochem. Biophys. […] The enzyme inhibitory activity was measured as inhibition of the test compound on farnesylation of the C-terminal of v-ki-ras p21 in the above-mentioned reaction system.

FTase [2] = molecular target: T2, FTase (Bos taurus, UniProt P29702+P49355); experiment: FTase inhibitory activity (farnesylation of C-terminal peptide of lamin B, crude bovine brain enzyme, FTase [^3 H]SPA enzyme assay kit); format: biochemical; conditions: for inhibitory activity against FTase (in words): Table 2 summary; for IC50: bovine brain enzyme, lamin B C-terminal peptide
T2 construct: An extract of minced bovine brain was subjected to column chromatography on DEAE-Sephacel (Pharmacia); from tissue; host or cells: bovine brain; DEAE-Sephacel active fraction, crude enzyme solution
Description: as §1
An extract of minced bovine brain was subjected to column chromatography on DEAE-Sephacel (Pharmacia). The active fraction was concentrated by ultrafiltration and dialyzed against a mixture of 20 mM Tris-HCl (pH 8.0), 50 mM NaCl, […], 1 mM DTT, 0.2 mM phenylmethylsulfonyl fluoride (PMSF). The resulting dialysate was used as a crude enzyme solution. Measurement of activity was carried out by using the enzyme obtained by the above-mentioned method and an FTase [^3 H]SPA enzyme assay kit (Amersham). Enzyme inhibitory activity was measured as inhibition of farnesylation of the C-terminal peptide of lamin B by the test compound in the above-mentioned reaction system. The enzyme inhibitory activity of a group treated with a test compound of a known concentration was compared with that of a non-treated group to calculate the concentration of the test compound for 50% inhibition of farnesylation (IC50).

[3] = tested on: NIH 3T3 fibroblasts transformed by oncogene EJ-ras; experiment: Inhibitory activity on cell growth of NIH 3T3/EJ-ras; format: cell-based
Description: Inhibitory Activity on Cell Growth
The antitumor activity was measured by using NIH 3T3 fibroblasts transformed by oncogene EJ-ras (hereinafter referred to as "NIH 3T3/EJ-ras").
NIH 3T3/EJ-ras cells were suspended in a DME medium (Nissui KK) containing 10% fetal bovine serum, penicillin (100 U/ml) and streptomycin (100 μg/ml) (hereinafter referred to as medium A) in a cell concentration of 1.0×10^4 cells/ml. Each well of a […] microtiter plate was inoculated with 0.1 ml of the cell suspension, and the system was monolayer cultured by incubation in a carbondioxide incubator at 37° C. for 24 hours. To each well was added 0.1 ml of a test compound appropriately diluted with medium A, followed by incubation in the carbondioxide incubator at 37° C. for 72 hours. The cells were recovered by trypsinization, and the number of the cells was counted with a cell counter. A concentration of the test compound for 50% inhibition of cell growth (IC50) was calculated.

[4] = tested on: Staphylococcus aureus ATCC 6538P; experiment: Antimicrobial activity, agar dilution method (SA); format: cell-based; conditions: ATCC6538P, pH 7
Description: (§2) Antimicrobial activity was measured by an agar dilution method using a culture medium (pH 7) prepared by dissolving 3 g of Bacto-tryptone (Difco), 3 g of meat extract, 1 g of yeast extract, 1 g of glucose, and 16 g of agar in 1 l of water. The antimicrobial activity was expressed in terms of minimum growth inhibitory concentration (MIC).

[5] = tested on: Enterococcus faecium ATCC 10541; experiment: Antimicrobial activity, agar dilution method (EF); format: cell-based; conditions: ATCC10541, pH 7
Description: as §2

[6] = tested on: Bacillus subtilis No. 10707; experiment: Antimicrobial activity, agar dilution method (BS); format: cell-based; conditions: pH 7
Description: as §2

[7] = tested on: Staphylococcus aureus, Enterococcus faecium, Bacillus subtilis; experiment: Antimicrobial activity, agar dilution method (summary of Table 4); format: cell-based; conditions: Table 4 summary
Description: as §2

FTase [8] = conditions: not numerically described; cited from earlier work
FTase of yeast origin = conditions: ras protein of yeast origin as substrate; read-out: IC50 against FTase of yeast origin; cited from earlier work

| SMILES | IC50 (FTase [2]) [µM] | MIC [4] [µg/mL] | MIC [5] [µg/mL] | MIC [6] [µg/mL] | inhibitory activity against FTase (in words) (FTase [2]) | antimicrobial activity (in words) [7] | FTase inhibitory activity (in words) (FTase [8]) | further results |
| --- | --- | --- | --- | --- | --- | --- | --- | --- |
| CCCC[C@@H](C)/C=C(C)/C=C(\C)C(=O)NC1=CC(=O)[C@@H]2O[C@@H]2C1=O [IVa, reference compound] |  |  |  |  |  |  | the activity of these compounds can be detected | IC50 (FTase [1]; Experiment 2): 60 µM |
| CCCCC(C)/C=C(\C)C(=O)NC1=CC(=O)[C@@H]2O[C@@H]2C1=O (stereo partly drawn) [IVb] |  |  |  |  |  |  | the activity of these compounds can be detected |  |
| CCCCC(C)/C=C(C)/C=C/C(=O)NC1=CC(=O)[C@@H]2O[C@@H]2C1=O (stereo partly drawn) [IVc] |  |  |  |  |  |  | the activity of these compounds can be detected |  |
| CCCC[C@@H](C)/C=C(C)/C=C(\C)C(=O)NC1=C[C@](O)(/C=C/C=C/C=C/C(=O)NC2=C(O)CCC2=O)[C@@H]2O[C@@H]2C1=O [Manumycin, reference compound] |  |  |  |  |  |  |  | IC50 (FTase [1]; Experiment 1): 76 µM; IC50 (FTase [1]; Experiment 2): 35 µM; IC50 (FTase of yeast origin): 5 µM |

Continued, in another order:

| IC50 (FTase [2]) [µM] | MIC [4] [µg/mL] | MIC [5] [µg/mL] | MIC [6] [µg/mL] | SMILES | inhibitory activity against FTase (in words) (FTase [2]) | antimicrobial activity (in words) [7] | FTase inhibitory activity (in words) (FTase [8]) | further results |
| --- | --- | --- | --- | --- | --- | --- | --- | --- |
| 21 | 0.91 (≈ 2.55 µM) | 0.46 (≈ 1.29 µM) | 0.46 (≈ 1.29 µM) | CC(C)=CCC/C(C)=C/CC/C(C)=C/C(=O)NC1=CC(=O)[C@@H]2O[C@@H]2C1=O (relative stereo) [Compound I-1, 4,5-Epoxy-1-farnesoylamino-3,6-dioxocyclohexene] | obvious inhibitory activity against FTase | remarkable antimicrobial activity |  | IC50 (FTase [1]; Experiment 1): 18 µM; inhibitory activity against FTase (in words) (FTase [1]; Table 1 summary): obvious inhibitory activity against FTase; inhibitory activity compared with manumycin and compound IVa (in words) (FTase [1]; Table 1 summary, as compared with manumycin and compound IVa): significantly strong as compared with those of manumycin and compound IVa; IC50 ([3]; Mus musculus, NIH3T3, NIH 3T3/EJ-ras, 72 hours): 4.3 µM; inhibitory activity on growth (in words) ([3]; Table 3 summary): obvious inhibitory activity on growth of the NIH 3T3 fibroblasts transformed by oncogene EJ-ras |
| 21 | > 100 | 0.04 (≈ 0.124 µM) | 0.08 (≈ 0.249 µM) | CCCCCCCCCCCC(=O)NC1=CC(=O)C2OC2C1=O (stereo not drawn) [Compound I-2, 4,5-Epoxy-l-lauroylamino-3,6-dioxocyclohexene] | obvious inhibitory activity against FTase | remarkable antimicrobial activity |  |  |
| 19 | > 100 | 0.33 (≈ 0.822 µM) | 0.65 (≈ 1.62 µM) | CCCCC/C=C\C/C=C\CCCCCCCC(=O)NC1=CC(=O)C2OC2C1=O (stereo not drawn) [Compound I-4, 4,5-Epoxy-1-linoleoylamino-3,6-dioxocyclohexene] | obvious inhibitory activity against FTase | remarkable antimicrobial activity |  |  |
| 23 | > 100 | 0.65 (≈ 1.53 µM) | 0.65 (≈ 1.53 µM) | CC(C)=CCC/C(C)=C/CC/C(C)=C/CC/C(C)=C/C(=O)NC1=CC(=O)C2OC2C1=O (stereo not drawn) [Compound I-5, 4,5-Epoxy-1-geranylgeranoylamino-3,6-dioxocyclohexene] | obvious inhibitory activity against FTase | remarkable antimicrobial activity |  |  |
